{"source": "patent US20050119338A1", "about": "“Combination of cytochome p450 dependent protease inhibitors” (priority 2001, published 2005)", "key": {"[1]": {"test_system": "HIV-1/LAI infected MT4 cells", "format": "cell-based", "conditions": "in combination with the compound of formula (4); three molar ratios; mean of three experiments", "method": "In general, combinations of two compounds can act synergistically, in an additive way or antagonistically. […] For the current invention, this was assessed in an experimental setting where the potency of different ratios of the two HIV-protease inhibitors is measured. Results were plotted in an isobologram graph according to the method described by Chou and Talalay (Adv. Enzyme Regul. 22: 27-55, 1984).\nThe results were analyzed according to the isobologram method described by Chou and Talalay (1984).\nThe results are presented as the mean of three separate experiments. The combination index (CI) for each combination was determined."}, "[2]": {"experiment": "Safety and tolerability (adverse events, maculopapular rash) in clinical testing"}, "[3]": {"experiment": "Influence of ritonavir on the pharmacokinetics of a single dose of the compound of formula (4)", "conditions": "human, in vivo; for AUC: mean ± SD"}, "[4]": {"conditions": "Panel E (1200 mg/200 mg RTV o.d.)"}}}
{"smiles": "CC(C)CN(C[C@@H](O)[C@H](Cc1ccccc1)NC(=O)O[C@H]1CCOC1)S(=O)(=O)c1ccc(N)cc1", "note": "[amprenavir]", "values": [{"measurement": "combination index (CI)", "setting": "[1]", "result": "0.65-0.77"}]}
{"smiles": "CC(C)CN(C[C@@H](O)[C@H](Cc1ccccc1)NC(=O)O[C@H]1CO[C@H]2OCC[C@H]21)S(=O)(=O)c1ccc(N)cc1", "note": "[compound of formula (4), carbamic acid [(1S,2R)-3-[[(4-aminophenyl)sulfonyl](2-methylpropyl)amino]-2-hydroxy-1-(phenylmethyl)propyl]-(3R,3aS,6aR)hexahydrofuro[2,3-b]furan-3-yl ester]", "values": [{"measurement": "subjects who developed maculopapular rash", "setting": "[2]; 1200 mg t.i.d. alone", "result": "4 out of 6"}, {"measurement": "itching of the body and/or redness of the skin", "setting": "[2]; [4]", "result": "two other volunteers"}, {"measurement": "maculopapular rash", "setting": "[2]; [4]", "result": "one volunteer with a clear maculopapular rash"}, {"measurement": "maculopapular rash", "setting": "[2]; volunteers in panels A to D (with ritonavir)", "result": "No maculopapular rash was observed"}, {"measurement": "Tmax", "setting": "[3]", "result": 60, "unit": "min"}, {"measurement": "Tmax", "setting": "[3]; 800 mg", "result": 48, "unit": "min"}, {"measurement": "AUC", "setting": "[3]; 800 mg, Session I: single 800 mg dose alone", "result": "10700 ± 3130", "unit": "ng·h/mL"}, {"measurement": "AUC", "setting": "[3]; 800 mg, Session II: single 800 mg dose with RTV", "result": "98700 ± 38500", "unit": "ng·h/mL"}]}
{"smiles": "CC(C)(C)NC(=O)[C@@H]1CN(Cc2cccnc2)CCN1C[C@@H](O)C[C@@H](Cc1ccccc1)C(=O)N[C@H]1c2ccccc2C[C@H]1O", "note": "[indinavir]", "values": [{"measurement": "combination index (CI)", "setting": "[1]", "result": "0.87-0.92"}]}
{"smiles": "Cc1cccc(C)c1OCC(=O)N[C@@H](Cc1ccccc1)[C@@H](O)C[C@H](Cc1ccccc1)NC(=O)[C@H](C(C)C)N1CCCNC1=O", "note": "[lopinavir]", "values": [{"measurement": "combination index (CI)", "setting": "[1]", "result": "0.85-0.95"}]}
{"smiles": "Cc1c(O)cccc1C(=O)N[C@@H](CSc1ccccc1)[C@H](O)CN1C[C@H]2CCCC[C@H]2C[C@H]1C(=O)NC(C)(C)C", "note": "[nelfinavir]", "values": [{"measurement": "combination index (CI)", "setting": "[1]", "result": "0.61-0.80"}]}
{"smiles": "CC(C)c1nc(CN(C)C(=O)N[C@H](C(=O)N[C@@H](Cc2ccccc2)C[C@H](O)[C@H](Cc2ccccc2)NC(=O)OCc2cncs2)C(C)C)cs1", "note": "[ritonavir]", "values": [{"measurement": "combination index (CI)", "setting": "[1]", "result": "0.66-0.81"}]}
{"smiles": "CC(C)(C)NC(=O)[C@@H]1C[C@@H]2CCCC[C@@H]2CN1C[C@@H](O)[C@H](Cc1ccccc1)NC(=O)[C@H](CC(N)=O)NC(=O)c1ccc2ccccc2n1", "note": "[saquinavir]", "values": [{"measurement": "combination index (CI)", "setting": "[1]", "result": "0.94-1.0"}]}
